US9150489B2, “1-(2-fluorobiphenyl-4-yl)-alkyl carboxylic acid derivatives for the therapy of transthyretin amyloidosis” (CHIESI FARMACEUTICI S.p.A., priority 2010, dated 2015)

Legend:
[1] = target: T1, wild-type human transthyretin (TTR) (Homo sapiens, UniProt P02766); details: cited from earlier work
T1 construct: made in house; host or cells: E. coli

[2] = target: T1, wild-type human transthyretin (TTR); experiment: Competitive binding to wild-type human TTR by fluorometric techniques; details: 20° C.; for emission peak of TTR-bound ANS in the presence of the compound / emission peak of TTR-bound tafamidis in the presence of the compound / emission peak of TTR-bound trans-resveratrol in the presence of the compound: 10 μM compound; for emission peak of TTR-bound ANS in the presence of the compound: 10 μM ANS, excitation 360 nm; for emission peak of TTR-bound ANS in the presence of the compound / emission peak of TTR-bound trans-resveratrol in the presence of the compound: 5 μM TTR; for emission peak of TTR-bound tafamidis in the presence of the compound: 10 μM tafamidis, 10 μM TTR; for emission peak of TTR-bound tafamidis in the presence of the compound / emission peak of TTR-bound trans-resveratrol in the presence of the compound: excitation 320 nm; for emission peak of TTR-bound trans-resveratrol in the presence of the compound: 10 μM trans-resveratrol; for relative binding affinity to TTR (competitive binding assays taken together): 50 mM Na phosphate buffer, pH 7.2, 150 mM NaCl
human wild-type TTR = target: T2, human wild-type TTR (Homo sapiens, UniProt P02766); experiment: In vitro fibrillogenesis by wild-type TTR at acidic pH (turbidity at 400 nm); format: biochemical; details: 3.6 μM TTR, 10.8 μM inhibitor, pH 4.4, 37° C., average of two measurements; for inhibition at 10.8 µM: read-out: inhibitory effect on wild-type TTR fibrillogenesis
T2 construct: made in house; host or cells: E. coli
From the text: (§1) The aim of this study was to evaluate the inhibitory effect of the same representative compounds of the inventions tested in Example 1 in vitro fibrillogenesis by human wild-type TTR and two major amyloidogenic variants (V30M and V 122I) at moderately acidic pH, in comparison to reference compounds. To highlight the inhibitory effect of CHF 5074 and CHF4795 versus diflunisal and tafamidis on in vitro fibrillogenesis by wild-type, V30M and V122I TTR at moderately acid pH, we followed the kinetics of fibril formation by these proteins, by monitoring the increase in turbidity at 400 nm as reported in Johnson et al., 2008, J. Med. Chem., 51:260 (which is incorporated herein by reference), upon incubation with TTR. The final concentration of TTR was of 3.6 μM, which is close to its physiological plasma concentration, with fibrillogenesis inhibitors at a final concentration of 10.8 μM. According to the procedure adopted for other inhibitors of fibrillogenesis (Johnson et al., 2008, J. Med. Chem., 51:260), TTR was incubated with each inhibitor at neutral pH (10 mM Na phosphate buffer, pH 7.2, 100 mM KCl, 1 mM EDTA) for 30 minutes at ambient temperature, prior to the incubation of the protein at acidic pH (200 mM Na Acetate buffer, pH 4.4, 100 mM KCl, 1 mM EDTA) at 37° C. in order to promote fibrillogenesis. Inhibitory effect data represent the average of two independent measurements for each compound.

V30M TTR = target: T3, V30M TTR (Homo sapiens, UniProt P02766, V50M); experiment: In vitro fibrillogenesis by V30M TTR at acidic pH (turbidity at 400 nm); format: biochemical; details: 3.6 μM TTR, 10.8 μM inhibitor, pH 4.4, 37° C., average of two measurements
T3 construct: made in house; host or cells: E. coli
From the text: as §1

V 122I TTR = target: T4, V 122I TTR (Homo sapiens, UniProt P02766, V142I); experiment: In vitro fibrillogenesis by V122I TTR at acidic pH (turbidity at 400 nm); format: biochemical; details: 3.6 μM TTR, 10.8 μM inhibitor, pH 4.4, 37° C., average of two measurements; for inhibition at 10.8 µM: read-out: inhibitory effect on V 122I TTR fibrillogenesis
T4 construct: made in house; host or cells: E. coli
From the text: as §1

Row | inhibition at 10.8 µM (human wild-type TTR) | inhibition at 10.8 µM (V 122I TTR) | SMILES | binding affinity for TTR (known property of the fluorescent probes) [1] | emission peak of TTR-bound ANS in the presence of the compound ([2]; pH 7.2) | emission peak of TTR-bound tafamidis in the presence of the compound ([2]; pH 7.2) | emission peak of TTR-bound trans-resveratrol in the presence of the compound ([2]; pH 7.2) | relative binding affinity to TTR (competitive binding assays taken together) [2] | inhibitory effect on V30M TTR fibrillogenesis (V30M TTR) | other results
1 | ~75% | ~92% | O=C(O)C1(c2ccc(-c3ccc(Cl)c(Cl)c3)c(F)c2)CC1 [CHF 5074, 1-(3′,4′-dichloro-2-fluorobiphenyl-4-yl)cyclopropanecarboxylic acid] |  | nearly completely abolished | nearly completely shifted to that of unbound tafamidis | nearly completely abolished | higher binding affinity to TTR as compared to trans-resveratrol | inhibitory effects similar to those observed with wild-type TTR | 
2 | ~75% | ~92% | O=C(O)c1ccc2nc(-c3cc(Cl)cc(Cl)c3)oc2c1 [tafamidis, 2-(3,5-dichlorophenyl)-1,3-benzoxazole-6-carboxylic acid, reference compound] |  |  |  |  |  | inhibitory effects similar to those observed with wild-type TTR | 

Further lines, the molecule ahead of its results:

Row | SMILES | inhibition at 10.8 µM (human wild-type TTR) | inhibition at 10.8 µM (V 122I TTR) | binding affinity for TTR (known property of the fluorescent probes) [1] | emission peak of TTR-bound ANS in the presence of the compound ([2]; pH 7.2) | emission peak of TTR-bound tafamidis in the presence of the compound ([2]; pH 7.2) | emission peak of TTR-bound trans-resveratrol in the presence of the compound ([2]; pH 7.2) | relative binding affinity to TTR (competitive binding assays taken together) [2] | inhibitory effect on V30M TTR fibrillogenesis (V30M TTR) | other results
3 | O=S(=O)(O)c1cccc2cccc(Nc3ccccc3)c12 [ANS, 8-anilino-1-naphthalene sulfonate] |  |  | relatively low binding affinity |  |  |  |  |  | 
4 | CC(C)(C(=O)O)c1ccc(-c2cc(Cl)cc(Cl)c2)c(F)c1 [CHF 4795, 2-methyl-(3′,5′-dichloro-2-fluoro-biphenyl-4-yl) propionic acid] |  |  |  | nearly completely abolished | nearly completely shifted to that of unbound tafamidis | nearly completely abolished | higher binding affinity to TTR as compared to trans-resveratrol | inhibitory effects similar to those observed with wild-type TTR | inhibitory effect on wild-type TTR fibrillogenesis (human wild-type TTR): about 75%; inhibitory effect on V 122I TTR fibrillogenesis (V 122I TTR): about 92%
5 | O=C(O)c1cc(-c2ccc(F)cc2F)ccc1O [diflunisal, reference compound] | ~75% | ~92% |  |  |  |  |  | inhibitory effects similar to those observed with wild-type TTR | 
6 | Oc1ccc(/C=C/c2cc(O)cc(O)c2)cc1 [trans-resveratrol, reference compound] |  |  | high binding affinity, greater than that of thyroxine |  |  |  |  |  | fluorescence emission of TTR-bound diflunisal exposed to equimolar compound ([2]; 10 μM TTR-bound diflunisal, equimolar compound, excitation 340 nm, pH 7.2): a spectrum similar to that of TTR-bound trans-resveratrol rather than to that of TTR-bound diflunisal was obtained
